From patent publication US11643437B2, “Tandem repeat cancer-targeting peptides for molecular conjugation or engineering and uses thereof in cancer theranostics” (Chang Gung Memorial Hospital, priority 2020, dated 2023)
Where no end group is shown, it is not given here.

B1: F4P6-BsAb: bispecific antibody-like knob-and-hole heterodimer, anti-CD3 scFv plus F4P6-TR-CTP on both Fc C-termini, SEQ ID NO 12 and 14 (protein)
chain 1: MGGRRVRWEVYISRAGYVNRQIAWRRHHRSATMGWSLILLFLVAVATRVLSQVQLVQSGAEVKKPGASVKVSCKASGYTFTRYTMHWVRQAPGQGLEWIGYINPSRGYTNYNQKFKDKATLTTDKSISTAYMELSRLRSDDTAVYYCARYYDDHYTLDYWGQGTLVTVSSGGGGSGGGGSGGGGSEIVLTQSPATLSLSPGERATLSCSASSSVSYMNWYQQKPGQAPRRWIYDTSKLASGIPARFSGSGSGTSYTLTISSLEPEDFAVYYCQQWSSNPFTFGQGTKVEIKRSGGGGSGGGGSGGGGSTGTHTCPPCPAPELAGAPSVFLFPPKPKDTLMISRTPEVTCVVVDVSHEDPEVKFNWYVDGVEVHNAKTKPREEQYNSTYRVVSVLTVLHQDWLNGKEYKCKVSNKALPAPIEKTISKAKGQPREPQVCTLPPSREEMTKNQVSLSCAVKGFYPSDIAVEWESNGQPENNYKTTPPVLDSDGSFFLVSKLTVDKSRWQQGNVFSCSVMHEALHNHYTQKSLSLSPGKGGGGSGGGGSGGGGSRPFLPFLPY
chain 2: MGGRRVRWEVYISRAGYVNRQIAWRRHHRSATMGWSLILLFLVAVATRVLSTGTHTCPPCPAPELAGAPSVFLFPPKPKDTLMISRTPEVTCVVVDVSHEDPEVKFNWYVDGVEVHNAKTKPREEQYNSTYRVVSVLTVLHQDWLNGKEYKCKVSNKALPAPIEKTISKAKGQPREPQVYTLPPCREEMTKNQVSLWCLVKGFYPSDIAVEWESNGQPENNYKTTPPVLDSDGSFFLYSKLTVDKSRWQQGNVFSCSVMHEALHNHYTQKSLSLSPGKGGGGSGGGGSGGGGSRPFLPFLPY

Columns and labels:
[1] = molecular target: peptide-binding domain of GRP78 (GRP78-PBD, amino acids 421-639) (Homo sapiens, UniProt P11021); assay: Surface plasmon resonance, GRP78-PBD binding to chip-bound N-terminal biotin-labeled CTPs/TR-CTPs; conditions: N-terminal GGGGS extension, peptide immobilized on streptavidin chip; for Kd: read-out: Dissociation constant KD
From the text: Biotin-labeled TR-CTPs and CTPs were synthesized (Biotools Co., Ltd, Taiwan) to evaluate kinetics of binding to GRP78 by surface plasmon resonance. TR-CTPs and CTPs were extended by five amino acids (GGGGS; SEQ ID NO: 9) at their N-termini. The N-termini were labeled with a single biotin molecule per TR-CTP/CTP through an aminohexanoic acid linkage.
Also biotin labeled were two negative control peptides, in which the L-Leu residues within the sequences of F4P6-TR-CTP and F4P13-TR-CTP were replaced with D-Leu residues (dF4P6 and dF4P13, respectively).
(§1) Streptavidin was immobilized to a sensor chip (CMS; GE Healthcare) having a matrix of carboxymethylated dextran covalently attached to a gold surface using a standard amine-coupling method according to established procedures (GE Healthcare). The biotin-labeled TR-CTPs were immobilized on the chip by flowing them over the chip at a flow rate of 5 μl/min using HBS-P+ (GE Healthcare) as the running buffer.
(§2) Sensor chips were regenerated by washing the chip surface for 30 s with glycine buffer (10 mM; pH 11.5). Chips were reused after two chip regeneration cycles followed by a 120 s wash with running buffer.

GRP78-PBD [2] = molecular target: T1, GRP78-PBD (Homo sapiens, UniProt P11021); assay: Surface plasmon resonance, GRP78-PBD binding to chip-bound C-terminal biotin-labeled CTPs/TR-CTPs; conditions: C-terminal GGGGSK extension, biotin on C-terminal lysine; for Kd: read-out: Dissociation constant KD
Protocol: as §1, §2
The P13-series peptides described above in Example 1 were also biotin labeled after extending them at their C-termini with the sequence GGGGSK (SEQ ID NO: 10). Biotin was conjugated to the C-terminal lysine residue using standard techniques. Binding affinities of GRP78-PBD for the sensor chip-bound peptides were determined as described above in Example 2.

[3] = system: N87 gastric cancer target cells; assay: PBMC-mediated cell killing, xCELLigence RTCA, N87; assay type: cell-based; conditions: 12.5 nM antibody, effector-to-target ratio 10:1, 90 h incubation
Protocol: (§3) The ability of bispecific antibody-like construct F4P6-BsAb to induce cell killing by peripheral blood mononuclear cells (PBMC) was tested on TOV21G ovarian cancer target cells and N87 gastric cancer target cells.
(§4) Target cells were seeded at 2×10^4 cells per well of a 96-well electronic microtiter plate (“E-plate”; ACEA Biosciences, Inc.) and allowed to adhere for 2 h. PBMC effector cells, PBMC effector cells plus F4P6-BsAb, and PBMC effector cells plus Ctrl-BsAb that lacks the […] sequence were added to reach a final effector-to-target ratio of 10:1. The concentration of F4P6-BsAb and Ctrl-BsAb was 12.5 nM. Data was gathered and quantified using an xCELLigence Real-Time Cell Analysis system (“RTCA”; ACEA Biosciences, Inc.) as directed by the manufacturer.

GRP78-PBD [4] = molecular target: T1, GRP78-PBD; assay: Surface plasmon resonance, GRP78-PBD binding to F4P6-BsAb amine-coupled to sensor chip; conditions: F4P6-BsAb directly coupled to sensor chip by amine-coupling
Protocol: as §1, §2
Following expression and purification of F4P6-BsAb, the kinetics of GRP78-PDB binding to it was evaluated by surface plasmon resonance as described in Example 1 above, differing in that the F4P6-BsAb was directly coupled to the CMS sensor chip by amine-coupling.

[5] = system: TOV21G ovarian cancer target cells; assay: PBMC-mediated cell killing, xCELLigence RTCA, TOV21G; assay type: cell-based; conditions: 12.5 nM antibody, effector-to-target ratio 10:1, 40 h incubation
Protocol: as §3, §4

Chain of peptide-binding domain of GRP78 (GRP78-PBD, amino acids 421-639) (P11021 421-639): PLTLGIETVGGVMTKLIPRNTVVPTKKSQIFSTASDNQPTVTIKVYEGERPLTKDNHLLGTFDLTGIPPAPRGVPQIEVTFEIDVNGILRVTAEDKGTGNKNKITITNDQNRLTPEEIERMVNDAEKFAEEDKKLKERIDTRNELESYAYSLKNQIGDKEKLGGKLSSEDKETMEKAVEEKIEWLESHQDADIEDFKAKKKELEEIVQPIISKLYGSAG
T1 sequence (P11021 421-639): as above

Molecule	Association rate Kon [1]	Dissociation rate Koff [1]	Kd [1] [nM]	Association rate Kon (GRP78-PBD [2])	Dissociation rate Koff (GRP78-PBD [2])	Kd (GRP78-PBD [2]) [nM]	PBMC mediated lysis of N87 cells [3] [%]	Kd (GRP78-PBD [4]) [nM]	Koff value (GRP78-PBD [4])	PBMC mediated lysis of TOV21G cells [5] [%]
RPFLFPFLFYRPFLFPFLFY [F5P13-TR-CTP]	1.9 × 10^3 M^−1S^−1	1.2×10^−3 S^−1	610							
RLLDTNRPFLPY [P6-CTP, reference compound]	1.5 × 10^3 M^−1S^−1	3.0×10^−3 S^−1	1900							
RLLDTNRPFLFY [P13-CTP, reference compound]	1.2 × 10^3 M^−1S^−1	3.4×10^−3 S^−1		9.7 × 10^2 M^−1S^−1	2.0 × 10^−3 S^−1	2700				
RPFLFPFLFY [F4P13-TR-CTP]	7.9 × 10^2 M^−1S^−1	1.7×10^−3 S^−1	2100	1.8 × 10^3 M^−1S^−1	1.2 × 10^−3 S^−1	660				
RPFLPFLPYRPFLPFLPY [F5P6-TR-CTP]	8.9 × 10^2 M^−1S^−1	9.1×10^−4 S^−1	1000							
RPFLPFLPY [F4P6-TR-CTP]	2.3 × 10^3 M^−1S^−1	2.8×10^−3 S^−1	1200							
B1							15	1100	9.4×10^−4 S^−1	22
